Results from PubChem BioAssay (NCI).
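Test compounds were applied to cells in 96-well plates for 48 hours at 5 doses. Here, GI50 denotes the concentration required for 50% inhibition of growth. TGI is the concentration that stops growth completely.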

Columns and labels:
Test in all cases: NCI anticancer screen, dose series, 48 h
SR leukemia = system: SR leukemia
CAKI-1 renal = system: CAKI-1 renal
RXF 393 renal = system: RXF 393 renal
HCT-15 colon = system: HCT-15 colon
SF-539 CNS = system: SF-539 CNS
UACC-62 melanoma = system: UACC-62 melanoma
NCI-H522 lung = system: NCI-H522 lung
SK-OV-3 ovarian = system: SK-OV-3 ovarian

Molecule `O=C(CCCCCCc1nc2ccc(Br)cc2[nH]1)NO` has a GI50 (SR leukemia) of 0.148 µM, a TGI (SR leukemia) greater than 100 µM and a GI50 (CAKI-1 renal) of 0.461 µM. It also gave a TGI (CAKI-1 renal) of 1.54 µM, a GI50 (RXF 393 renal) of 0.24 µM and a TGI (RXF 393 renal) of 0.813 µM. For the same molecule, the GI50 (HCT-15 colon) was 1.69 µM, the TGI (HCT-15 colon) was greater than 86.5 µM and the GI50 (SF-539 CNS) was 0.97 µM. For the same molecule, the TGI (SF-539 CNS) was 31.3 µM, the GI50 (UACC-62 melanoma) was 0.189 µM and the TGI (UACC-62 melanoma) was 1.17 µM. The GI50 (NCI-H522 lung) was 0.134 µM, the TGI (NCI-H522 lung) was 0.859 µM and the GI50 (SK-OV-3 ovarian) was 0.628 µM. The TGI (SK-OV-3 ovarian) was 3.52 µM.

`COc1ccccc1/C=C1\COc2ccc(O)c(O)c2C1=O` was tested, and the GI50 (SR leukemia) was 0.407 µM, the TGI (SR leukemia) was 11.9 µM and the GI50 (CAKI-1 renal) was 1.48 µM. It also gave a TGI (CAKI-1 renal) of 4.15 µM, a GI50 (RXF 393 renal) of 1.51 µM and a TGI (RXF 393 renal) of 2.97 µM. For the same molecule, the GI50 (HCT-15 colon) was 0.823 µM, the TGI (HCT-15 colon) was 4.54 µM and the GI50 (SF-539 CNS) was 1.52 µM. For the same molecule, the TGI (SF-539 CNS) was 3.35 µM, the GI50 (UACC-62 melanoma) was 1.59 µM and the TGI (UACC-62 melanoma) was 3.29 µM. For the same molecule, the GI50 (NCI-H522 lung) was 0.214 µM, the TGI (NCI-H522 lung) was 0.656 µM and the GI50 (SK-OV-3 ovarian) was 4.68 µM. For the same molecule, the TGI (SK-OV-3 ovarian) was greater than 100 µM.

With `Clc1ccc(Cl)c(N/N=C\c2c[nH]c3ccccc23)c1` the GI50 (SR leukemia) was 4.14 µM, the TGI (SR leukemia) was 32.2 µM and the GI50 (CAKI-1 renal) was 5.43 µM. It also gave a TGI (CAKI-1 renal) of 19.6 µM, a GI50 (RXF 393 renal) of 10.3 µM and a TGI (RXF 393 renal) of 24.8 µM. It also gave a GI50 (HCT-15 colon) of 8.81 µM, a TGI (HCT-15 colon) greater than 100 µM and a GI50 (SF-539 CNS) of 8.16 µM. For the same molecule, the TGI (SF-539 CNS) was 21 µM, the GI50 (UACC-62 melanoma) was 9.92 µM and the TGI (UACC-62 melanoma) was 22.6 µM. It also gave a GI50 (NCI-H522 lung) of 1.78 µM, a TGI (NCI-H522 lung) of 14.8 µM and a GI50 (SK-OV-3 ovarian) of 12.8 µM. For the same molecule, the TGI (SK-OV-3 ovarian) was 27.2 µM.

With `COc1ccc(CN2CCc3c(Cl)nc(N)nc3C2=O)c(OC)c1` the GI50 (SR leukemia) was 1.03 µM, the TGI (SR leukemia) was 10.7 µM and the GI50 (CAKI-1 renal) was 43.6 µM. For the same molecule, the TGI (CAKI-1 renal) was greater than 100 µM, the GI50 (RXF 393 renal) was 22.7 µM and the TGI (RXF 393 renal) was 52.9 µM. It also gave a GI50 (HCT-15 colon) of 10.4 µM, a TGI (HCT-15 colon) of 24.3 µM and a GI50 (SF-539 CNS) of 15.8 µM. The TGI (SF-539 CNS) was 31.7 µM, the GI50 (UACC-62 melanoma) was 13.5 µM and the TGI (UACC-62 melanoma) was 27.6 µM. The GI50 (NCI-H522 lung) was 12.7 µM, the TGI (NCI-H522 lung) was 30.9 µM and the GI50 (SK-OV-3 ovarian) was 24.2 µM. It also gave a TGI (SK-OV-3 ovarian) of 88 µM.

`CCOP1(=O)OCC2OC(n3cnc4c(N)ncnc43)C(O)C2O1` (stereo not given) was tested, and the TGI (SR leukemia) was greater than 100 µM, the TGI (CAKI-1 renal) was greater than 100 µM and the TGI (RXF 393 renal) was greater than 100 µM. The TGI (HCT-15 colon) was greater than 100 µM, the TGI (SF-539 CNS) was greater than 100 µM and the TGI (UACC-62 melanoma) was greater than 100 µM. The TGI (NCI-H522 lung) was greater than 100 µM and the TGI (SK-OV-3 ovarian) was greater than 100 µM.

`Cc1nc2c(cnn2-c2ccnc3c(C(F)(F)F)cccc23)c(=O)o1` gave a GI50 (CAKI-1 renal) greater than 100 µM, a TGI (CAKI-1 renal) greater than 100 µM and a GI50 (RXF 393 renal) greater than 100 µM. It also gave a TGI (RXF 393 renal) greater than 100 µM, a GI50 (HCT-15 colon) greater than 100 µM and a TGI (HCT-15 colon) greater than 100 µM. It also gave a GI50 (SF-539 CNS) greater than 100 µM, a TGI (SF-539 CNS) greater than 100 µM and a GI50 (UACC-62 melanoma) of 93.9 µM. It also gave a TGI (UACC-62 melanoma) greater than 100 µM, a GI50 (NCI-H522 lung) greater than 100 µM and a TGI (NCI-H522 lung) greater than 100 µM. It also gave a GI50 (SK-OV-3 ovarian) greater than 100 µM and a TGI (SK-OV-3 ovarian) greater than 100 µM.

For `COc1ccc(NC(=O)c2ccc(NC3=C(Cl)C(=O)N(Cc4ccccc4)C3=O)cc2)cc1`, the GI50 (SR leukemia) was 0.766 µM, the TGI (SR leukemia) was 3.61 µM and the GI50 (CAKI-1 renal) was 1.89 µM. It also gave a TGI (CAKI-1 renal) of 3.5 µM, a GI50 (RXF 393 renal) of 3.21 µM and a TGI (RXF 393 renal) of 14.6 µM. It also gave a GI50 (HCT-15 colon) of 4.04 µM, a TGI (HCT-15 colon) of 17.3 µM and a GI50 (SF-539 CNS) of 3.29 µM. The TGI (SF-539 CNS) was 11.8 µM, the GI50 (UACC-62 melanoma) was 16.3 µM and the TGI (UACC-62 melanoma) was 36.8 µM. It also gave a GI50 (NCI-H522 lung) of 3.3 µM, a TGI (NCI-H522 lung) of 13.8 µM and a GI50 (SK-OV-3 ovarian) of 18.4 µM. The TGI (SK-OV-3 ovarian) was 36.2 µM.

For `COC1CC(OC2OC(CO)C(O)C(O)C2O)/C(=C\C#N)C(O)C1OC` (stereo not given), the TGI (SR leukemia) was greater than 100 µM, the TGI (CAKI-1 renal) was greater than 100 µM and the TGI (RXF 393 renal) was greater than 100 µM. The TGI (HCT-15 colon) was greater than 100 µM, the TGI (SF-539 CNS) was greater than 100 µM and the TGI (UACC-62 melanoma) was greater than 100 µM. For the same molecule, the TGI (NCI-H522 lung) was greater than 100 µM and the TGI (SK-OV-3 ovarian) was greater than 100 µM.
